Structures are written as SMILES. Like-named read-outs stand apart in the source and are kept apart here.

Here are results for 44 molecules from publication PMC4452637, “Identification of positron emission tomography (PET) tracer candidates by prediction of the target-bound fraction in the brain” (EJNMMI Research, 2014).

One data set has as its target NET. Conditions: literature value; 76 (Additional file 1); cited from earlier work.
Data set [1] has as its system D2. Conditions: PET, cited from earlier work.
Data set [2] in a line: High-throughput brain slice method (Vu,brain). Conditions: unbound volume of distribution in brain, measured in rat brain slices, LC-MS/MS (no fu,brain tabulated in Table S1).
For data set [3], the target named is Amyloid. The arrangement: method as in ref 12, 13, 14, 15 (Additional file 1). Conditions: literature value; 15 (Additional file 1); cited from earlier work.
The next data set addresses AchE. Conditions: literature value; ref 18 (Additional file 1); cited from earlier work.
On the set-up of data set [4]: method as in ref 10 (a number printed in a supplementary file, which may have a reference list of its own: not looked up in the article's list). Conditions: unbound fraction in homogenized brain tissue, reported; cited from earlier work.
Data set [5] can be described thus: Unbound fraction in brain homogenate (fu,brain); Vu,brain calculated from it with pH-partition model. Conditions: calculated from reported fu,brain and tracer pKa with pH-partition model (tracers with fu,brain tabulated, footnote h of Table S1).
Procedure: The unbound volume of distribution in the brain (Vu,brain) describing the extent of non-specific partitioning was determined for 31 tracers using a previously described high-throughput brain slice method [11].
Data set [6] deals with D2. Further details: method as in ref 22, 31, 62, 82 (Additional file 1). Conditions: literature value; 82 (Additional file 1); cited from earlier work.
A further data set concerns the target GABA. The arrangement: method as in ref 33, 74 (Additional file 1). Conditions: literature value; 74 (Additional file 1); cited from earlier work.
Another data set addresses SERT. The arrangement: method as in ref 5, 19, 43, 45, 67 (Additional file 1). Conditions: literature value; 67 (Additional file 1); cited from earlier work.
In data set [7] the target is DAT. Further details: method as in ref 26, 31, 57 (Additional file 1). Conditions: literature value; 57 (Additional file 1); cited from earlier work.
A further data set deals with nAChr a4b2. Conditions: PET, thalamus, ref 3 (Additional file 1), cited from earlier work.
The test system of data set [8] is Amyloid. Conditions: PET, cortex, 61 (Additional file 1), cited from earlier work.
For another data set, the system named is 5HT2a. Conditions: PET, temporal cortex, 47 (Additional file 1), cited from earlier work.
Data set [9] concerns DAT. Conditions: PET, striatum, 58 (Additional file 1), cited from earlier work.
In data set [10] the target is TSPO. The arrangement: method as in ref 28, 29, 55 (Additional file 1). Conditions: literature value; 55 (Additional file 1); cited from earlier work.
Data set [11] deals with TSPO. Conditions: PET, basal ganglia, 81 (Additional file 1), cited from earlier work.
The test system of another data set is 5HT1a. Conditions: PET, hippocampus, 65 (Additional file 1), cited from earlier work.
[12] abbreviates: caudate/striatum, ref 23 (Additional file 1).

The Kd is the concentration at which binding is half-saturated. Consider `CNCCC(Oc1ccccc1OC)c1ccccc1` (racemic) [[^11C]Nisoxetine], for which the Kd at NET is 0.73 nM.

For `CCN1CCC[C@H]1CNC(=O)c1c(O)c(Cl)cc(Cl)c1O[11CH3]` (racemic) [[^11C]Raclopride], the “BP ND” value with D2 [1] (setting [12]) is given as 2.6.

For `Cc1ccc(N2CCN([11CH3])CC2)c2oc(C(=O)Nc3ccc(N4CCOCC4)cc3)cc(=O)c12` [[^11C]AZ10419369], the “V u,brain” value in data set [2] worked out at 30 mL/g brain.

Regarding `CNc1ccc(-c2nc3ccc(O)cc3s2)cn1` [[^11C]AZD2184], the Kd on Amyloid [3] is 4.9 nM.

On to `[11CH3]Nc1ccc(-c2nc3ccc(O)cc3s2)cn1` [[^11C]AZD2184], for which the “V u,brain” value in data set [2] is recorded as 33 mL/g brain.

`CN1C(=O)Cc2cc3c(CCC4CCN(Cc5ccccc5)CC4)noc3cc21` [[^11C]CP-126998]: the Kd at AchE was 0.48 nM.

Take `[11CH3]N1C(=O)Cc2cc3c(CCC4CCN(Cc5ccccc5)CC4)noc3cc21` [[^11C]CP-126998]: in data set [4], the “fu,brain” value is 0.07. Moreover, the “V u,brain” value in data set [5] is given as 41 mL/g brain.

Turning to `CN([11CH3])Cc1ccccc1Sc1ccc(C#N)cc1N` [[^11C]DASB], the “fu,brain” value in data set [4] is reported as 0.09. Further, the “V u,brain” value in data set [5] is 31 mL/g brain.

As to `CCN1CCC[C@H]1CNC(=O)c1cc(Br)cc(OC)c1OC` [[^11C]FLB457], the Kd on D2 [6] is 0.02 nM.

Regarding `CCN1CCC[C@H]1CNC(=O)c1cc(Br)cc(OC)c1O[11CH3]` [[^11C]FLB457], the “fu,brain” value in data set [4] was 0.11. In addition, the “V u,brain” value in data set [5] is given as 26 mL/g brain.

Take `CCOC(=O)c1ncn2c1CN(C)C(=O)c1cc(F)ccc1-2` [[^11C]Flumazenil]: the Kd at GABA is 0.7 nM.

`[11CH3]OC(=O)N1CCN(C(=O)Cc2ccc(Cl)c(Cl)c2)[C@H](CN2CCCC2)C1` [[^11C]GR103545]: the “fu,brain” value in [4] is recorded as 0.07. Further, the “V u,brain” value in [5] is 41 mL/g brain.

As for `[11CH3]NC(=O)c1ccc(Oc2ccc3c(c2)CCN(C2CCC2)CC3)nc1` [[^11C]GSK189254A], the “fu,brain” value in [4] is 0.24.

For the molecule `Cc1nccc2c1[nH]c1cc(O[11CH3])ccc12` [[^11C]Harmine], the “fu,brain” value in data set [4] is given as 0.04. In data set [5], the “V u,brain” value is 25 mL/g brain.

With `Cc1ccc(Sc2ccccc2CN(C)C)c(N)c1` [[^11C]MADAM], the Kd on SERT is 0.06 nM.

With `Cc1ccc(Sc2ccccc2CN(C)[11CH3])c(N)c1` [[^11C]MADAM], the “V u,brain” value in data set [2] was found to be 90 mL/g brain.

For `COc1c(O[11CH3])cccc1[C@H](O)C1CCN(CCc2ccc(F)cc2)CC1` [[^11C]MDL100907], the “V u,brain” value in data set [5] is given as 17 mL/g brain.

As for `CSc1ccc([C@H]2CN3CCC[C@H]3c3ccccc32)cc1` [[^11C]McN5652], the Kd at SERT is 0.2 nM.

In the case of `[11CH3]Sc1ccc([C@H]2CN3CCC[C@H]3c3ccccc32)cc1` [[^11C]McN5652], the “V u,brain” value in data set [2] amounted to 238 mL/g brain.

`COc1ccccc1O[C@@H](c1ccccc1)[C@H]1CNCCO1` [[^11C]MeNER]: the Kd at NET is 2.5 nM.

As to `[11CH3]Oc1ccccc1O[C@@H](c1ccccc1)[C@H]1CNCCO1` [[^11C]MeNER], the “fu,brain” value in [4] is given as 0.07. The “V u,brain” value in data set [5] is given as 31 mL/g brain.

`C[C@@H](N[C@@H]1C[C@H](c2cccc(O[11CH3])c2)N(c2ccc(C(F)(F)F)cc2)C1=O)c1ccccc1` [[^11C]MePPEP]: the “V u,brain” value in data set [2] was 296 mL/g brain.

As for `[11CH3]N1CCc2cc(Cl)c(O)cc2[C@@H](c2cccc3ccoc23)C1` [[^11C]NNC112], the “V u,brain” value in data set [2] stood at 70 mL/g brain.

Consider `COC(=O)C1C(c2ccc(C)cc2)CC2CCC1N2CC=CI` (stereo not shown) [[^11C]PE2I], for which the Kd on DAT [7] is 4.9 nM.

In the case of `Cc1ccc(C2CC3CCC(C2C(=O)O[11CH3])N3CC=CI)cc1` (stereo not shown) [[^11C]PE2I], the “V u,brain” value in data set [2] amounted to 39 mL/g brain.

`[11CH3]Nc1ccc(-c2nc3ccc(O)cc3s2)cc1` [[^11C]PIB]: the “fu,brain” value in [4] is 0.004.

As to `CCC(C)N(C)C(=O)c1cc2ccccc2c(-c2ccccc2Cl)n1` (stereo not shown) [[^11C]PK11195], the “fu,brain” value in [4] was 0.01. Moreover, the “V u,brain” value in [5] was 59 mL/g brain.

`CCN1CCC[C@H]1CNC(=O)c1c(OC)ccc(Br)c1OC` [[^11C]Remoxipride]: the Kd on D2 [6] is 270 nM.

For `[11CH3]N1CCc2cc(Cl)c(O)cc2[C@@H](c2ccccc2)C1` [[^11C]SCH23390], the “fu,brain” value in data set [4] was 0.06. Moreover, the “V u,brain” value in data set [5] is 32 mL/g brain.

With `COc1ccccc1N1CCN(CCN(c2ccccn2)[11C](=O)C2CCCCC2)CC1` [[^11C]WAY100635], in data set [2], the “V u,brain” value came to 14 mL/g brain.

Regarding `[18F]c1ncccc1OC[C@@H]1CCN1` [[^18 F]2-FA-85380], the “BP ND” value with nAChr a4b2 was 1.8; in the data set on nAChr a4b2 (listed as [^18F]2-FA-85380) it was 1.8[3].

On to `CNc1ccc(-c2cc3cc(O)ccc3o2)c(F)n1` [[^18 F]AZD4694], for which the equilibrium dissociation constant (Kd) at Amyloid [3] was 2.3 nM.

Turning to `CNc1ccc(-c2cc3cc(O)ccc3o2)c([18F])n1` [[^18 F]AZD4694], the “BP ND” value in the data set with Amyloid [8] is 1.2; in the data set with Amyloid [8] (listed as [^11C]AZD4694), 1.2[16]. For the same molecule, the “V u,brain” value in [2] came out at 205 mL/g brain.

`O=C(c1ccc([18F])cc1)C1CCN(CCn2c(=S)[nH]c3ccccc3c2=O)CC1` [[^18 F]Altanserin]: the “BP ND” value in the data set with 5HT2a was 1.06; in the data set on 5HT2a (listed as [^18F]Altanserin) it was 1.06[8]. Besides, in [4], the “fu,brain” value was 0.02. Further, the “V u,brain” value in data set [5] is listed as 122 mL/g brain.

Regarding `Cc1ccc([C@H]2C[C@@H]3CC[C@H]([C@H]2C(=O)OCCF)N3C/C=C/I)cc1` [[^18 F]FE-PE2I], the Kd on DAT [7] was 12 nM.

As for `Cc1ccc([C@H]2C[C@@H]3CC[C@H]([C@H]2C(=O)OCC[18F])N3C/C=C/I)cc1` [[^18 F]FE-PE2I], the “BP ND” value is 4.1 with DAT [9] and 4.1[27] with DAT [9] (listed as [^11C]FE-PE2I). In [2], the “V u,brain” value is recorded as 62 mL/g brain.

On to `CC(=O)N(Cc1ccccc1OCCF)c1cnccc1Oc1ccccc1` [[^18 F]FEPPA], for which, on TSPO [10], the Kd was 0.07 nM.

For `CC(=O)N(Cc1ccccc1OCC[18F])c1cnccc1Oc1ccccc1` [[^18 F]FEPPA], the “BP ND” value in the data set on TSPO [11] is 4.4; in the data set on TSPO [11] (listed as [^18F]FEPPA), 4.4[30]. In data set [4], the “fu,brain” value is reported as 0.07. The “V u,brain” value in data set [5] is 15 mL/g brain.

In the case of `COC(=O)[C@H]1[C@@H](c2ccc(I)cc2)C[C@@H]2CC[C@H]1N2CCCF` [[^18 F]FP-CIT], at DAT [7], the Kd is 33 nM.

Take `COC(=O)[C@H]1[C@@H](c2ccc(I)cc2)C[C@@H]2CC[C@H]1N2CCC[18F]` [[^18 F]FP-CIT]: the “BP ND” value with DAT [9] was 1.0; with DAT [9] (listed as [^18F]FP-CIT), 1[32]. Further, in data set [2], the “V u,brain” value was determined as 36 mL/g brain.

Consider `C=CCN1CCC[C@H]1CNC(=O)c1cc(CCCF)cc(OC)c1OC` [[^18 F]Fallypride], for which the dissociation constant (Kd) on D2 [6] is 0.03 nM.

For `C=CCN1CCC[C@H]1CNC(=O)c1cc(CCC[18F])cc(OC)c1OC` [[^18 F]Fallypride], the “fu,brain” value in [4] is recorded as 0.15. In data set [5], the “V u,brain” value is 18 mL/g brain. Moreover, the “BP ND” value is 22.2 with D2 [1] (setting [12]); 22.2[23] with D2 [1] (caudate/striatum, ref 23 (Additional file 1), listed as [^18F]Fallypride); 2.11 in the data set with D2 [1] (thalamus, 32 (Additional file 1)); 2.11[23] with D2 [1] (thalamus, 32 (Additional file 1), listed as [^18F]Fallypride).

In the case of `COc1ccccc1N1CCN(CCN(C(=O)c2ccc([18F])cc2)c2ccccn2)CC1` [[^18 F]MPPF], the results for the “BP ND” value in the data set on 5HT1a and with 5HT1a (listed as [^18F]MPPF) were 1.6 and 1.6[51], respectively. Moreover, in data set [4], the “fu,brain” value was 0.1. The “V u,brain” value in [5] is 14 mL/g brain.

Take `O=C(CCCN1CCC2(CC1)C(=O)NCN2c1ccccc1)c1ccc([18F])cc1` [[^18 F]Spiperone]: the “V u,brain” value in data set [2] worked out at 147 mL/g brain.
